What all share (type): functional
What all share (details): read-out: DIZ

Assay [1] has as its system Bacillus subtilis. Kind of assay: Antibacterial activity against Bacillus subtilis assessed as diameter of growth inhibition zone at 100 ug/ml after 24 hr by agar diffusion method. A general note: Agar diffusion results depend on both activity and mobility in agar.
Assay [2] has as its system Proteus mirabilis. Put plainly: Antibacterial activity against Proteus mirabilis assessed as diameter of growth inhibition zone at 50 ug/ml after 24 hr by agar diffusion method.
Assay [3] deals with Salmonella typhi. Put plainly: Antibacterial activity against Salmonella enterica subsp. enterica serovar Typhi assessed as diameter of growth inhibition zone at 50 ug/ml after 24 hr by agar diffusion method.
Assay [4] deals with Pseudomonas aeruginosa. Put plainly: Antibacterial activity against Pseudomonas aeruginosa assessed as diameter of growth inhibition zone at 50 ug/ml after 24 hr by agar diffusion method.
Assay [5] concerns Escherichia coli. Kind of assay: Antibacterial activity against Escherichia coli assessed as diameter of growth inhibition zone at 50 ug/ml after 24 hr by agar diffusion method.
The test system of assay [6] is Staphylococcus aureus. Kind of assay: Antibacterial activity against Staphylococcus aureus assessed as diameter of growth inhibition zone at 50 ug/ml after 24 hr by agar diffusion method.
Assay [7] concerns Bacillus subtilis. Put plainly: Antibacterial activity against Bacillus subtilis assessed as diameter of growth inhibition zone at 50 ug/ml after 24 hr by agar diffusion method.
Assay [8] concerns Proteus mirabilis. Kind of assay: Antibacterial activity against Proteus mirabilis assessed as diameter of growth inhibition zone at 100 ug/ml after 24 hr by agar diffusion method.
The subject of assay [9] is Salmonella typhi. Kind of assay: Antibacterial activity against Salmonella enterica subsp. enterica serovar Typhi assessed as diameter of growth inhibition zone at 100 ug/ml after 24 hr by agar diffusion method.
The subject of assay [10] is Pseudomonas aeruginosa. Kind of assay: Antibacterial activity against Pseudomonas aeruginosa assessed as diameter of growth inhibition zone at 100 ug/ml after 24 hr by agar diffusion method.
The subject of assay [11] is Escherichia coli. Put plainly: Antibacterial activity against Escherichia coli assessed as diameter of growth inhibition zone at 100 ug/ml after 24 hr by agar diffusion method.
The test system of assay [12] is Staphylococcus aureus. Kind of assay: Antibacterial activity against Staphylococcus aureus assessed as diameter of growth inhibition zone at 100 ug/ml after 24 hr by agar diffusion method.

`O=[N+]([O-])c1ccc(N/N=C(/C=C/c2ccccc2)c2ccccc2)c([N+](=O)[O-])c1`: the zone of inhibition at 100 µg/mL in [1] worked out at 9 mm; in assay [8], 9.5 mm; in assay [9], 8.5 mm; in assay [10] it was 8.5 mm; in assay [11], 8 mm; in assay [12], 8.5 mm. Besides, the zone of inhibition at 50 µg/mL in assay [2] came out at 6.5 mm; in assay [3], 6.5 mm; in assay [4] it was 6 mm; in assay [5] it was 6.5 mm; in assay [6], 6 mm; in assay [7], 6.5 mm.
For the molecule `CC(/C=C/c1ccccc1)=N\Nc1ccccc1`, the zone of inhibition at 100 µg/mL stood at 8.5 mm in assay [1]; 9 mm in assay [8]; 8.5 mm in assay [9]; 8.5 mm in [10]; 8.5 mm in [11]; 8.5 mm in [12]. In addition, the zone of inhibition at 50 µg/mL in [2] is 6 mm; in [3] it was 6.5 mm; in [4], 6 mm; in assay [5] it was 6 mm; in [6] it was 6 mm; in [7] it was 6.5 mm.
`CC1=NC(=C/c2ccccc2)/C(=N/Nc2ccccc2)O1`: the zone of inhibition at 100 µg/mL in assay [1] is 9.5 mm; in assay [8] it was 8.5 mm; in assay [9], 8 mm; in assay [10] it was 8 mm; in assay [11], 9 mm; in [12], 16 mm. For the same molecule, the zone of inhibition at 50 µg/mL in assay [2] amounted to 6.5 mm; in assay [3], 6 mm; in assay [4], 6 mm; in assay [5] it was 6.5 mm; in [6] it was 14 mm; in [7] it was 6 mm.
Take `CC1=NC(=C/c2ccccc2)/C(=N/Nc2ccc([N+](=O)[O-])cc2[N+](=O)[O-])O1`: the zone of inhibition at 100 µg/mL in [1] worked out at 9 mm; in assay [8] it was 9.5 mm; in assay [9] it was 8 mm; in [10], 8.5 mm; in assay [11], 8.5 mm; in assay [12], 9 mm. The zone of inhibition at 50 µg/mL in assay [2] came out at 6 mm; in assay [3] it was 6.5 mm; in [4], 6 mm; in [5], 6 mm; in [6], 6.5 mm; in assay [7] it was 6 mm.
As to `CC(/C=C/c1ccccc1)=N/Nc1nc(-c2ccccc2)cs1`, the zone of inhibition at 100 µg/mL is 8.5 mm in assay [1]; 8 mm in assay [8]; 8 mm in assay [9]; 8 mm in assay [10]; 9 mm in [11]; 9.5 mm in [12]. The zone of inhibition at 50 µg/mL is 6.5 mm in assay [2]; 6 mm in assay [3]; 6 mm in assay [4]; 6 mm in assay [5]; 6.5 mm in assay [6]; 6 mm in assay [7].
In the case of `C(=C\c1ccccc1)/C(=N\Nc1nc(-c2ccccc2)cs1)c1ccccc1`, the zone of inhibition at 100 µg/mL in assay [1] came to 8.5 mm; in assay [8], 8.5 mm; in assay [9], 8 mm; in assay [10] it was 8 mm; in assay [11], 8.5 mm; in assay [12] it was 8.5 mm. In addition, the zone of inhibition at 50 µg/mL in assay [2] is 6.5 mm; in assay [3], 6 mm; in assay [4], 6 mm; in assay [5], 7 mm; in assay [6], 6.5 mm; in [7], 6.5 mm.
Turning to `CC(/C=C/c1ccccc1)=N\Nc1ccc(-c2nc3ccccc3[nH]2)cc1`, the zone of inhibition at 100 µg/mL was 8.5 mm in [1]; 8.5 mm in [8]; 8 mm in assay [9]; 8 mm in assay [10]; 9 mm in assay [11]; 8 mm in assay [12]. Moreover, the zone of inhibition at 50 µg/mL came to 6.5 mm in [2]; 6 mm in assay [3]; 6 mm in assay [4]; 6.5 mm in assay [5]; 6.5 mm in assay [6]; 6 mm in [7].
Take `C(=C\c1ccccc1)/C(=N/Nc1ccc(-c2nc3ccccc3[nH]2)cc1)c1ccccc1`: the zone of inhibition at 100 µg/mL in [1] is 8.5 mm; in assay [8], 8.5 mm; in [9] it was 8 mm; in assay [10] it was 8.5 mm; in assay [11], 8.5 mm; in [12], 9 mm. Besides, the zone of inhibition at 50 µg/mL in [2] was found to be 6 mm; in assay [3] it was 6.5 mm; in [4] it was 6 mm; in [5], 6 mm; in assay [6] it was 6.5 mm; in assay [7], 6 mm.
With `CC(/C=C/c1ccccc1)=N\NC(=O)c1ccncc1`, the zone of inhibition at 100 µg/mL in [1] was found to be 8.5 mm; in assay [8] it was 8.5 mm; in [9], 8.5 mm; in assay [10] it was 8 mm; in assay [11] it was 8 mm; in assay [12] it was 8.5 mm. The zone of inhibition at 50 µg/mL in assay [2], in [3], in assay [4], in [5], in assay [6] and in assay [7] was 6 mm each time.
As to `O=C(N/N=C(/C=C/c1ccccc1)c1ccccc1)c1ccncc1`, the zone of inhibition at 100 µg/mL is 8.5 mm in assay [1]; 8 mm in assay [8]; 8 mm in assay [9]; 8.5 mm in assay [10]; 8 mm in assay [11]; 8 mm in assay [12]. Further, the zone of inhibition at 50 µg/mL in assay [2] stood at 6.5 mm; in assay [3], 6 mm; in assay [4], 6 mm; in assay [5], 6 mm; in assay [6] it was 6 mm; in [7], 6 mm.
As to `O=C(O)c1cn(C2CC2)c2cc(N3CCNCC3)c(F)cc2c1=O` [CIPROFLOXACIN], the zone of inhibition at 50 µg/mL in assay [2] amounted to 19.5 mm; in [3], 18 mm; in assay [4], 19 mm; in assay [5] it was 18.5 mm; in assay [6], 18 mm; in assay [7] it was 18 mm.

The record behind these values is ChEMBL document CHEMBL3045275, “Synthesis and antibacterial activity of some new hydrazones” (2013).
